Measurements as given in ChEMBL document CHEMBL1127968, “Examination of peptidic ,-diamino-,-difluoroketones as inhibitors of human leukocyte elastase” (Bioorg Med Chem Lett, 1994).

Molecular target: T1, Neutrophil elastase (Homo sapiens, UniProt P08246)
T1 sequence (P08246 whole entry): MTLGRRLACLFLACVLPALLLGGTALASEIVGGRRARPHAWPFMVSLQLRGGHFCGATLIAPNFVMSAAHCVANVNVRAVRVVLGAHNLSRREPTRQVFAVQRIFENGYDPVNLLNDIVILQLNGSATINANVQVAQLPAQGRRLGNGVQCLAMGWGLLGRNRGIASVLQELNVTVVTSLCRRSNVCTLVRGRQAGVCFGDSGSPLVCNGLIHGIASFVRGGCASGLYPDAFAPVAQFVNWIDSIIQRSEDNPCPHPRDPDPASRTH
Assay: In vitro inhibitory activity against human leukocyte elastase was determined

| SMILES | IC50 [nM] | Ki [nM] |
| --- | --- | --- |
| CC(C)CC(=O)NCC(F)(F)C(=O)C(CC1CCCCC1)NC(=O)[C@@H](NC(=O)[C@H](Cc1ccccc1)NC(=O)OC(C)(C)C)C(C)C (stereo partly specified) | 3.5 | – |
| COc1ccc(C(=O)N[C@H](C(=O)N2CCC[C@H]2C(=O)N[C@H](C(=O)C(F)(F)C(N)=O)C(C)C)C(C)C)cc1 | – | 0.65 |
| COc1ccc(C(=O)N[C@H](C(=O)N2CCC[C@H]2C(=O)N[C@H](C(=O)C(F)(F)CNC(=O)OC(C)(C)C)C(C)C)C(C)C)cc1 | – | 3.4 |
| COc1ccc(C(=O)N[C@H](C(=O)N2CCC[C@H]2C(=O)N[C@H](C(=O)C(F)(F)CNCc2ccccc2)C(C)C)C(C)C)cc1 | – | 0.35 |
| CNC(=O)C(F)(F)C(=O)[C@@H](NC(=O)[C@@H]1CCCN1C(=O)[C@@H](NC(=O)c1ccc(OC)cc1)C(C)C)C(C)C | – | 3.4 |
| CC(C)[C@H](NC(=O)Oc1ccccc1)C(=O)N1CCC[C@H]1C(=O)N[C@H](C(=O)C(F)(F)CNCc1ccccc1)C(C)C | – | 4.1 |
| CC(C)[C@H](NC(=O)Oc1ccccc1)C(=O)N1CCC[C@H]1C(=O)N[C@H](C(=O)C(F)(F)CN)C(C)C | – | 0.81 |

More lines, now with the values ahead:

| IC50 [nM] | Ki [nM] | SMILES |
| --- | --- | --- |
| – | 3 | CNC(=O)C(F)(F)C(=O)[C@@H](NC(=O)[C@@H]1CCCN1C(=O)[C@@H](NC(=O)OCc1ccccc1)C(C)C)C(C)C |
| – | 1.6 | CC(C)[C@H](NC(=O)OCc1ccccc1)C(=O)N1CCC[C@H]1C(=O)N[C@H](C(=O)C(F)(F)CNCc1ccccc1)C(C)C |
| – | 15 | COc1ccc(C(=O)N[C@H](C(=O)N2CCC[C@H]2C(=O)N[C@H](C(=O)C(F)(F)CN)C(C)C)C(C)C)cc1 |
| – | 0.39 | CC(C)[C@H](NC(=O)Oc1ccccc1)C(=O)N1CCC[C@H]1C(=O)N[C@H](C(=O)C(F)(F)CNC(=O)OC(C)(C)C)C(C)C |
| – | 130 | CC(C)[C@H](NC(=O)OCc1ccccc1)C(=O)N1CCC[C@H]1C(=O)N[C@H](C(=O)C(F)(F)CN)C(C)C |
| – | 2.3 | CC(C)[C@H](NC(=O)Oc1ccccc1)C(=O)N1CCC[C@H]1C(=O)N[C@H](C(=O)C(F)(F)F)C(C)C |
| – | 0.85 | CNC(=O)C(F)(F)C(=O)[C@@H](NC(=O)[C@@H]1CCCN1C(=O)[C@@H](NC(=O)Oc1ccccc1)C(C)C)C(C)C |
| – | 1.1 | CC(C)[C@H](NC(=O)OCc1ccccc1)C(=O)N1CCC[C@H]1C(=O)N[C@H](C(=O)C(F)(F)CNC(=O)OC(C)(C)C)C(C)C |
| – | 0.38 | CC(C)[C@H](NC(=O)OCc1ccccc1)C(=O)N1CCC[C@H]1C(=O)N[C@H](C(=O)C(F)(F)C(N)=O)C(C)C |
